Patent publication US11827628B2, “Compositions and methods for inhibition of the JAK pathway” (Rigel Pharmaceuticals, Inc., priority 2005, dated 2023)
Like-named read-outs stand apart in the source and are kept apart here.

How the values were obtained:
[1] = test system: IL-4 stimulated expression of CD23 in human Ramos B cells (JAK-1 and JAK-3); test: Assay for Ramos B-Cell Line Stimulated with IL-4 (CD23 upregulation, FACS); assay type: cell-based; conditions: read-out: IC50, Example 41
Summary of the method: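 Log-phase Ramos cells, 1 h compound pre-incubation at 37 °C; IL-4 50 units/mL final, 20-24 h; CD23-PE stain, FACS; IC50.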

[2] = test system: up-regulation of ICAM-1 (CD54) by IFNγ in U937 human monocytic cells; test: U937 IFNγ ICAM1 FACS Assay; assay type: cell-based; conditions: U937 cells stimulated with IFNγ; ICAM-1 expression by FACS; read-out: IC50, Example 44
Summary of the method: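 Readout was the geometric-mean APC anti-ICAM-1 signal by FACS on live U937 monocytic cells, with % live cells also recorded. Cells were exposed to compounds (8 points, 3-fold dilutions, duplicates) for 30 min at 37 °C before 18–24 h of IFNγ stimulation. EC50 values were computed from the dose curve.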

[3] = Ramos B cells stimulated with IL-4, CD23 expression by FACS
[4] = Ramos B-cell line stimulated with IL-4, CD23 expression by FACS

Row | IC50 [1, 3] [nM] | IC50 [2] [nM] | IC50 [1, 4] [nM] | Molecule
1 | 129 | 596 | – | COCCn1ncc2cc(Nc3nc(Nc4cccc(S(N)(=O)=O)c4)ncc3F)ccc21 [VII-23, N2-(3-Aminosulfonylphenyl)-5-fluoro-N4-[1-(2-methoxyethyl)indazolin-5-yl]-2,4-pyrimidinediamine]
2 | 275 | 24400 | – | Cc1ccc(Nc2ncc(F)c(Nc3ccc4c(c3)CNCC4)n2)cc1S(N)(=O)=O [VII-16, N2-(3-Aminosulfonyl-4-methylphenyl)-5-fluoro-N4-(1,2,3,4-tetrahydroisoquin-7-yl)-2,4-pyrimidinediamine]
3 | – | 2280 | 249 | Cc1ccc(Nc2ncc(F)c(Nc3cccc(OCc4cccnc4)c3)n2)cc1S(N)(=O)=O [Compound I-183, N2-(3-Aminosulfonyl-4-methylphenyl)-5-fluoro-N4-[3-(3-pyridinyl)methyleneoxyphenyl]-2,4-pyrimidinediamine]
4 | 152 | 1260 | – | COCCOc1ccc(Nc2nc(Nc3ccc(C)c(S(N)(=O)=O)c3)ncc2F)cc1 [VI-112, N2-(3-Aminosulfonyl-4-methylphenyl)-5-fluoro-N4-[4-(2-methoxyethyleneoxy)phenyl]-2,4-pyrimdinediamine]
5 | – | 1410 | 177 | NS(=O)(=O)c1ccc(Nc2ncc(F)c(Nc3ccc(OCc4ccccn4)cc3)n2)cc1 [Compound I-163, N2-(4-Aminosulfonylphenyl)-5-fluoro-N4-[4-(2-pyridinyl)methyleneoxyphenyl]-2,4-pyrimidinediamine]
6 | – | 3530 | 188 | CCN(CC)CCNS(=O)(=O)c1ccc(Nc2ncc(F)c(Nc3cccc(OCc4cccnc4)c3)n2)cc1 [Compound I-186, N2-[4-(2-N,N-Diethylaminoethyl)aminosulfonylphenyl)-5-fluoro-N4-[3-(3-pyridinyl)methyleneoxyphenyl]-2,4-pyrimidinediamine]
7 | 185 | 1930 | – | N2-(3-Aminosulphonylphenyl)-5-fluoro-N4-[4-(3-pyridinylmethyl)benzo[1,4]oxazin-7-yl]-2,4-pyrimidinediamine [VII-56]
8 | – | 6620 | 486 | CNS(=O)(=O)c1cc(Nc2ncc(F)c(Nc3cccc(OCc4cccnc4)c3)n2)ccc1C [Compound I-184, 5-Fluoro-N2-[3-(N-methylaminosulfony)-4-methylphenyl]-5-fluoro-N4-[3-(3-pyridinyl)methyleneoxyphenyl]-2,4-pyrimidinediamine]
9 | 104 | 496 | – | CNS(=O)(=O)c1cc(Nc2ncc(F)c(Nc3ccc4c(c3)CCN4S(C)(=O)=O)n2)ccc1C [VII-62, 5-Fluoro-N2-[3-(N-methylaminosulfony)-4-methylphenyl]-N4-[4-(1-methylsulfonyl)indolin-5-yl]-2,4-pyrimidinediamine]
10 | 65 | 570 | – | CS(=O)(=O)N1CCc2cc(Nc3nc(Nc4cccc(S(N)(=O)=O)c4)ncc3F)ccc21 [VII-60, N2-(3-Aminosulfonylphenyl)-5-fluoro-N4-[4-(1-methylsulfonyl)indolin-5-yl]-2,4-pyrimidinediamine]
11 | – | 2510 | 233 | Cc1ccc(Nc2ncc(F)c(Nc3ccc(OC(C)(C)C(N)=O)cc3)n2)cc1S(N)(=O)=O [Compound I-127, N4-[4-(1-Aminocarbonyl-1-methyl)ethoxy]phenyl-N2-(3-aminosulfonyl-4-methyl)phenyl-5-fluoro-2,4-pyrimidinediamine]
12 | – | 11900 | 211 | Cc1cc(Nc2nc(Nc3ccc(S(N)(=O)=O)cc3)ncc2F)ccc1OC(C)C(N)=O (racemic) [Compound I-119, Racemic N4-[4-(1-Aminocarbonyl)ethoxy-3-methyl]phenyl-N2-(4-aminosulfonyl)phenyl-5-fluoro-2,4-pyrimidinediamine]
13 | – | 2220 | 159 | Cc1cc(Nc2nc(Nc3cccc(S(N)(=O)=O)c3)ncc2F)cc(C)c1OC(C)C(N)=O (racemic) [Compound I-123, Racemic N4-[4-(1-Aminocarbonyl)ethoxy-3,5-dimethyl]phenyl-N2-(3-aminosulfonyl)phenyl-5-fluoro-2,4-pyrimidinediamine]
14 | 29.6 | 1850 | – | N#CCn1ccc2cc(Nc3nc(Nc4cccc(S(N)(=O)=O)c4)ncc3F)ccc21 [IX-5, N2-(3-Aminosulfonylphenyl)-N4-(1-cyanomethyleneindol-5-yl)-5-fluoro-2,4-pyrimidinediamine]
15 | – | 1280 | 135 | Cc1cc(COc2ccc(Nc3nc(Nc4ccc(C)c(S(N)(=O)=O)c4)ncc3F)cc2)[nH]n1 [Compound I-197, N2-(3-Aminosulfonyl-4-methylphenyl)-5-fluoro-N4-[4-(3-methyl-(1H)-pyrazol-5-yl)methyleneoxyphenyl]-2,4-pyrimidinediamine]
16 | – | 508 | 137 | Cc1ccc(Nc2ncc(F)c(Nc3ccc(OCc4cccnc4)cc3)n2)cc1S(N)(=O)=O [Compound I-189, N2-(3-Aminosulfonyl-4-methylphenyl)-5-fluoro-N4-[4-(3-pyridinyl)methyleneoxyphenyl]-2,4-pyrimidinediamine]
17 | 118 | 3370 | – | Cc1ccc(Nc2ncc(F)c(Nc3ccc4[nH]cc(CC#N)c4c3)n2)cc1S(=O)(=O)NC1CCN(C)CC1 [IX-19, N4-(3-cyanomethylene-1H-indol-5yl)-5-fluoro-N2-[3-(1-methyl-4-aminopiperadine)sulfonyl-4-methylphenyl]-2,4-pyrimidinediamine]
18 | – | 923 | 130 | Cc1ccc(Nc2ncc(F)c(Nc3ccc(OCc4ccccn4)cc3)n2)cc1S(N)(=O)=O [Compound I-160, N2-(3-Aminosulfonyl-4-methylphenyl)-5-fluoro-N4-[4-(2-pyridinyl)methyleneoxyphenyl]-2,4-pyrimidinediamine]
19 | – | 14600 | 353 | CC(Oc1ccc(Nc2nc(Nc3cccc(S(N)(=O)=O)c3)ncc2F)cc1)C(N)=O (racemic) [Compound I-117, Racemic N4-[4-(1-Aminocarbonyl)ethoxy]phenyl-N2-(3-aminosulfonyl)phenyl-5-fluoro-2,4-pyrimidinediamine]
20 | 46.4 | 543 | – | Cc1ccc(Nc2ncc(F)c(Nc3ccc4c(ccn4CC#N)c3)n2)cc1S(N)(=O)=O [IX-8, N2-(3-Aminosulfonyl-4-methylphenyl)-N4-(1-cyanomethyleneindol-5-yl)-5-fluoro-2,4-pyrimidinediamine]
21 | 140 | 1290 | – | CCS(=O)(=O)N1CCc2cc(Nc3nc(Nc4ccc(S(N)(=O)=O)cc4)ncc3F)ccc2C1 [VII-13, N2-(4-aminosulfonyl)phenyl-N4-[(N-ethylsulfonyl)-1,2,3,4-tetrahydroisoquinolin-6-yl]-5-fluoro-2,4-pyrimidinediamine]
22 | – | 1640 | 245 | CCN(CC)CCNS(=O)(=O)c1ccc(Nc2ncc(F)c(Nc3ccc(OCc4ccccn4)cc3)n2)cc1 [Compound I-165, N2-[4-(2-N,N-Diethylaminoethyl)aminosulfonylphenyl)-5-fluoro-N4-[4-(2-pyridinyl)methyleneoxyphenyl]-2,4-pyrimidinediamine]
23 | – | 410 | 58.7 | CC(C)c1ccc(Nc2ncc(F)c(Nc3ccc(OCC#N)cc3)n2)cc1S(N)(=O)=O [Compound I-8, N2-(3-Aminosulfonyl-4-iso-propylphenyl)-N4-(4-cyanomethyleneoxyphenyl)-5-fluoro-2,4-pyrimidinediamine]
24 | – | 41.8 | 13 | Cc1ccc(Nc2ncc(Br)c(Nc3ccc(OCC#N)cc3)n2)cc1S(N)(=O)=O [Compound I-14, N2-(3-Aminosulfonyl-4-methylphenyl)-5-bromo-N4-(4-cyanomethyleneoxyphenyl)-2,4-pyrimidinediamine]
25 | – | 15500 | 115 | CNS(=O)(=O)c1cc(Nc2ncc(F)c(Nc3ccc(-c4ccccn4)c(OCF)c3)n2)ccc1C [Compound I-173, 5-Fluoro-N2-[3-N-(methyl)aminosulfonyl-4-methylphenyl]-N4-[4-(2-pyridinyl)-3-fluoromethyleneoxyphenyl]-2,4-pyrimidinediamine]
26 | 84 | – | – | N#CCn1ccc2cc(Nc3nc(Nc4ccc(S(N)(=O)=O)cc4)ncc3F)ccc21 [IX-6, N2-(4-Aminosulfonylphenyl)-N4-(1-cyanomethyleneindol-5-yl)-5-fluoro-2,4-pyrimidinediamine]
27 | – | – | 580 | Cc1ccc(Nc2nc(Nc3ccc(S(N)(=O)=O)cc3)ncc2F)cc1OCC(=O)N1CCOCC1 [Compound I-209, N2-(4-Aminosulfonylphenyl)-5-fluoro-N4-[4-methyl-3-(2-morpholinocarbonylmethyleneoxy)phenyl]-2,4-pyrimidinediamine]
28 | – | – | 28.6 | Cc1ccc(Nc2ncc(F)c(Nc3ccc(OCc4ccncc4)cc3)n2)cc1S(N)(=O)=O [Compound I-194, N2-(3-Aminosulfonyl-4-methylphenyl)-5-fluoro-N4-[4-(4-pyridinyl)methyleneoxyphenyl]-2,4-pyrimidinediamine]
29 | 36.7 | – | – | NC1CCOc2ccc(Nc3nc(Nc4cccc(S(N)(=O)=O)c4)ncc3F)cc21 (stereo not shown) [VII-28, N2-(3-Aminosulfonylphenyl)-N4-(chroman-4-amine-6-yl)-5-fluoro-2,4-pyrimidinediamine]
30 | 194 | – | – | C#CCOc1ccc(Nc2nc(Nc3ccc(C)c(S(=O)(=O)NC4CCN(C)CC4)c3)ncc2F)cc1 [VI-69, 5-Fluoro-N2-{[4-methyl-3-((1-methylpiperidin-4-yl)aminosulfonyl)]phenyl} N4-[4-(prop-2-ynyloxy)phenyl]-2,4-pyrimidinediamine]
